In patent US10316057B2, “Tandem facial amphiphiles” (WISCONSIN ALUMNI RESEARCH FOUNDATION, priority 2011, dated 2019):
Values joined by “and” are separate entries in the source; they are usually repeats but may differ in a detail not shown here. Equal values may be shown once. Where a name gives a salt, the structure may show the parent alone.

How the values were obtained:
[1] = Micelle characterization by gel filtration with triple detector analysis (TDA); format: physicochemical; conditions: for dn/dc, specific refractive index increment / IV, intrinsic viscosity / N, aggregation number of micelles / Rh (nm) / MMW, molecular weight of micelles / Mw/Mn, weight-averaged molecular weight divided by number-averaged molecular weight: TDA; for IV, intrinsic viscosity / N, aggregation number of micelles / Rh (nm) / MMW, molecular weight of micelles: 20 mM HEPES, 150 mM NaCl buffer; for IV, intrinsic viscosity / N, aggregation number of micelles / Rh (nm) / MMW, molecular weight of micelles / Mw/Mn, weight-averaged molecular weight divided by number-averaged molecular weight: mean ± SD; for MMW, molecular weight of micelles: TFA-1 n = 6, DDM n = 8; for Mw/Mn, weight-averaged molecular weight divided by number-averaged molecular weight: micelles; for MW of micelles in water: summary statement
Protocol: Micelles formed by DDM or by TFA-1 in pH 7.0 buffer (20 mM HEPES, 150 mM NaCl) were further characterized by gel filtration using a triple-detector system (Gatta et al., Anal. Biochem. 2010, 404, 21-29), analyzing light scattering, refractive index, and differential pressure (Table 2). In both cases the micelles are globular and monodisperse. TFA-1 micelles contain only 6 molecules, which contrasts with the ˜175 molecules in a DDM micelle. TFA-2 (R=ethyl) behaved similarly to TFA-1 (R=methyl), given the similarity in Rh, but TFA-3 (R=butyl) forms larger micelles. A related trend was observed among lipopeptides, with increasing length of the alkyl appendages leading to increasing micelle size (McGregor et al., Nat. Biotech. 2003, 21, 171-176).
The on-line SEC triple detector array (Gatta et al., Anal. Biochem. 404, 21 (2010)) (Viscotek Corporation, a Malvern Company) used for detergent analysis is composed of 1) a 660 nm differential refractometer for quantifying the concentration C (mg/mL) for all molecules according to their specific refractive index increment do/dc (mL/g) using Snell's Law of Refraction (RI signal=KRI*C*(dn/dc)/RISol), 2), a single right angle 90° static light scattering (RALS) detector for measuring the average mass M (Da) according to the Raleigh Light Scattering Equation for small molecules (LS90° signal=Mavg*RIsol^2*C*(dn/dc)^2)/KLS*Kopt, where Kopt=4*π^2/(λ^4*NA), and 3) an absolute differential viscometer (Haney, J. Appl. Polym. Sci. 30, 3023 (1985)) for measuring differential pressure (DP) and calculating intrinsic viscosity (IV; dL/g) according to Newtonian Viscosity (liquid layers) applied to tubes using Poiseulle's Law (DP signal=IV*C) and for calculating the radius of hydration Rh (nm) according to Einstein's volume of hydration equation for hard spheres (Rh=[( 3/10π)*IV*M/NA]^1/3).
The IV represents molecular shape and for proteins it can vary from 0.017 dl/g for globular shapes to 0.355 dl/g for elongated shapes to 0.499 dl/g for complete denaturation (Scheraga and Mandelkern, J. Chem. Phys. 75, 179-184 (1953); Dutta et al., J. Chromatogr. 536, 113-121 (1991); Chenal et al., J. Biol. Chem. 16, 284(3), 1781-1789 (2009)). The chromatography pump, injector, SEC column (0.75×60 cm TSK G3000 plus guard column), and TDArray are placed in a 4° C. cold box, while the buffer (degassed for more than 1 hr with stir prior use) is at room temperature (RT) to allow it to be run through a RT on-line degasser, which then runs though 3 ft of 4° C. stainless steel tubing before entering the SEC pump, injector and column. The extensive degassing insures an accurate DP measurement. With this configuration, the temperature at the detectors is 6° C. TDA buffer was 20 mM Hepes, 150 mM NaCl, […] and either 0.1 mM TFA-1 or 1 mM DDM. The refractive index of the solvent RISol was measured at 10° C. using an Anton Paar Abbemat temperature controlled refractometer at 589.2 nm. Triple detection data at every 5 Hz data point throughout the complete SEC peak were used for all analysis.
For calibration, the detector response factors KRI and KLS were measured using Ovalbumin Fraction VII (Sigma). Prior to calibration, ovalbumin was first purified by SEC (280 nm detection) at 4° C. to remove small populations of dimers and aggregates, and to insure Gaussian detector peaks for TDA calibration. Ovalbumin was solubilized at 26 mg/mL in TDA buffer at 4° C. for 10 min and clarified by centrifugation (10 min 15,000×g); collecting the top 30% of the SEC elution peak from 500 μL injections yielded monodisperse ovalbumin at 5-7 mg/mL. Ovalbumin mass was 44.3 kDa (Sigma Product Information sheet and references therein) with a 0.701 dA280nm/dc (Pace et al., Prot. Sci. 4(11), 2411-2423 (1995)) and 0.187 dn/dc (Maezawa et al., Biochem. Biophys. Acta 747, 291-297 (1983); Hayashi et al., Methods Enzymol. 172, 514-528 (1989)). […]

Bacteriorhodopsin (bR) = target: T1, Bacteriorhodopsin (bR) (Halobacterium salinarum, UniProt P02945); experiment: Stabilization assay for bacteriorhodopsin (absorbance at 554 nm); conditions: day 20, room temperature, 0.2 wt % OTG+0.8 wt % TFA
T1 construct: extract bR from the native purple membrane; endogenous in cells
T1 sequence (P02945 14-261 limits assumed): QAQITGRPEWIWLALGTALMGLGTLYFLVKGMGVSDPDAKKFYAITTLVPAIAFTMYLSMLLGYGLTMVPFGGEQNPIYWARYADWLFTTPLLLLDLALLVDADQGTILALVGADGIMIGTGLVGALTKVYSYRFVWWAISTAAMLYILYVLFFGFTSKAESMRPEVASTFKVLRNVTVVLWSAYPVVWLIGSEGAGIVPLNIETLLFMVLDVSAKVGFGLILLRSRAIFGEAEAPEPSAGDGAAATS
Protocol: Bacteriorhodopsin (bR) has been widely employed for assessment of new amphiphiles because this membrane protein is readily available, and stability can be assessed via spectrophotometry (absorbance at 554 nm). Following standard protocols (Bazzacco et al., Biomacromolecules 2009, 10, 3317-3326), 2.0 wt % octyl-β-D-thioglucoside (OTG) was used to extract bR from the native purple membrane. After removal of insoluble debris via ultracentrifugation, the bR solution was diluted with amphiphile-containing solutions to generate samples containing 0.2 wt % OTG+0.8 wt % TFA. A control sample had OTG added to give a total of 1.0 wt %. […] Parallel studies were carried out at different amphiphile concentrations as described in Example 3 below. DDM is not efficient at bR extraction from the native membrane but extracted bR can be stable in the presence of DDM (Milder et al., Biochemistry 1991, 30, 1751-1761).
The general procedure was followed according to the reported protocol of Bazzacco et al. (Biomacromolecules 10, 3317-3326 (2009)). Frozen aliquots of purple membranes containing bR at 184 μM were thawed and solubilized by incubation with octylthioglucoside (OTG) for 24 hr at 4° C. in a dark room. For the solubilization, OTG (CMC=0.28 wt %) was used at 2.0 wt % in 10 mM sodium phosphate (pH 6.9). […] BR stability in each TFA solutions was monitored by measuring absorbance at 554 nm for 20 days.

CCCCCCCCCCCCO[C@@H]1O[C@H](CO)[C@@H](O[C@H]2O[C@H](CO)[C@@H](O)[C@H](O)[C@H]2O)[C@H](O)[C@H]1O [DDM, dodecyl-β-D-maltoside, reference compound]
dn/dc, specific refractive index increment [1]: 0.130 mL/g | IV, intrinsic viscosity [1]: 0.028 ± 0.009 dL/g | N, aggregation number of micelles [1]: 176.4 ± 1.3 | Rh (nm) [1]: 3.42 ± 0.04 nm | MMW, molecular weight of micelles [1]: 89982 ± 663 Da | Mw/Mn, weight-averaged molecular weight divided by number-averaged molecular weight [1]: 1.01 ± 0.00 | MW of micelles in water [1]: ~90 kD

C[C@H](CCC(=O)N(C)CCCN(C)C(=O)CC[C@@H](C)[C@H]1CC[C@H]2[C@@H]3CC[C@@H]4C[C@H](O[C@@H]5O[C@H](CO)[C@@H](O[C@H]6O[C@H](CO)[C@@H](O)[C@H](O)[C@H]6O)[C@H](O)[C@H]5O)CC[C@]4(C)[C@H]3C[C@H](O[C@@H]3O[C@H](CO)[C@@H](O[C@H]4O[C@H](CO)[C@@H](O)[C@H](O)[C@H]4O)[C@H](O)[C@H]3O)[C@]12C)[C@H]1CC[C@H]2[C@@H]3CC[C@@H]4C[C@H](O[C@@H]5O[C@H](CO)[C@@H](O[C@H]6O[C@H](CO)[C@@H](O)[C@H](O)[C@H]6O)[C@H](O)[C@H]5O)CC[C@]4(C)[C@H]3C[C@H](O[C@@H]3O[C@H](CO)[C@@H](O[C@H]4O[C@H](CO)[C@@H](O)[C@H](O)[C@H]4O)[C@H](O)[C@H]3O)[C@]12C [TFA-1]
bR intact (Bacteriorhodopsin (bR)): ~80% | dn/dc, specific refractive index increment [1]: 0.173 mL/g | IV, intrinsic viscosity [1]: 0.036 ± 0.005 dL/g | N, aggregation number of micelles [1]: 6 and 6.2 ± 0.07 | Rh (nm) [1]: 1.96 ± 0.01 nm | MMW, molecular weight of micelles [1]: 13279 ± 157 Da | Mw/Mn, weight-averaged molecular weight divided by number-averaged molecular weight [1]: 1.00 ± 0.00 | MW of micelles in water [1]: ~13 kD
